According to patent publication US9540397B2, “BACE1 inhibitors” (Hoffmann-La Roche Inc., priority 2014, dated 2017):

Molecular target: T1, BACE1 (Homo sapiens, UniProt P56817)
T1 construct: endogenous in cells; host or cells: HEK293 APP cells
Test: Cellular Aβ-lowering assay (Abeta 40 AlphaLISA, HEK293 APP cells)
Assay type: cell-based
Conditions: 18-20 hrs incubation, Aβ40 in culture supernatant, read-out: BACE1 cell act. Aβ40 IC50
Method: Cellular Aβ-lowering assay:
The Abeta 40 AlphaLISA Assay can be used. The HEK293 APP cells were seeded in 96 well Microtiter plates in cell culture medium (Iscove's, plus 10% (v/v) fetal bovine serum, penicillin/streptomycin) to about 80% confluency and the compounds were added at a 3× concentration in ⅓ volume of culture medium (final DMSO concentration was kept at 1% v/v). After 18-20 hrs incubation at 37° C. and 5% CO2 in a humidified incubator, the culture supernatants were harvested for the determination of AP 40 concentrations using Perkin-Elmer Human Amyloid beta 1-40 (high specificity) Kit (Cat#AL275C).
In a Perkin-Elmer White Optiplate-384 (Cat#6007290), 2 ul culture supernatants were combined with 2 μl of a 10× AlphaLISA Anti-hAβ Acceptor beads+Biotinylated Antibody Anti-Aβ 1-40 Mix ([…]/5 nM). After 1 hour room temperature incubation, 16 μl of a 1.25× preparation of Streptavidin (SA) Donor beads (25 μg/mL) were added and incubated for 30 minutes in the Dark. Light Emission at 615 nm was then recorded using EnVision-Alpha Reader. Levels of Aβ 40 in the culture supernatants were calculated as percentage of maximum signal (cells treated with 1% DMSO without inhibitor). The IC50 values were calculated using the Excel XLfit software.

T1 sequence (P56817 46-501): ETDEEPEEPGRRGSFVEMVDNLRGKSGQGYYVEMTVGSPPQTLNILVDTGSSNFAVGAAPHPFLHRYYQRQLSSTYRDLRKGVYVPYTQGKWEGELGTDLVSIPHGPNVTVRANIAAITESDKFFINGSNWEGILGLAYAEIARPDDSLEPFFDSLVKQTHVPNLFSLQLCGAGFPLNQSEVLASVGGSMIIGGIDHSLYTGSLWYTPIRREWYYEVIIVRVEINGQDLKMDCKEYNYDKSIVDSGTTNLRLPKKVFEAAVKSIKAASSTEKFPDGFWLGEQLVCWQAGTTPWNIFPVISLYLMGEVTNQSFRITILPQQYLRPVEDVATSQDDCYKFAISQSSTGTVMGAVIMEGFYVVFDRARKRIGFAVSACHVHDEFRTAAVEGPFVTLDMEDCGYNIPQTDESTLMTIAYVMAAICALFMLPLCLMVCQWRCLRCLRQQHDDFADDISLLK

| Structure (SMILES) | IC50 [µM] |
| --- | --- |
| CC1(C)C(N)=N[C@](C)(c2nc(NC(=O)c3ncc(F)cc3Cl)ccc2F)[C@H]2CCN=[S@]21=O [Example 11BA, N-(6-((3aR,4R,8S)-6-amino-4,7,7-trimethyl-8-oxido-3,3a,4,7-tetrahydro-2H-isothiazolo[1,5-a][1,4]thiazin-4-yl)-5-fluoropyridin-2-yl)-3-chloro-5-fluoropicolinamide] | 0.117 |
| Cc1cc(Cl)cnc1C(=O)Nc1ccc(F)c([C@@]2(C)N=C(N)C(C)(C)[S@]3(=O)=NCC[C@H]23)n1 [Example 12BA, N-(6-((3aR,4R,8S)-6-amino-4,7,7-trimethyl-8-oxido-3,3a,4,7-tetrahydro-2H-isothiazolo[1,5-a][1,4]thiazin-4-yl)-5-fluoropyridin-2-yl)-5-chloro-3-methylpicolinamide] | 0.0242 |
| COc1cnc(C(=O)Nc2ccc(F)c([C@@]3(C)N=C(N)C(C)(C)[S@]4(=O)=NCC[C@H]34)n2)cn1 [Example 16BA, N-(6-((3aR,4R,8S)-6-amino-4,7,7-trimethyl-8-oxido-3,3a,4,7-tetrahydro-2H-isothiazolo[1,5-a][1,4]thiazin-4-yl)-5-fluoropyridin-2-yl)-5-methoxypyrazine-2-carboxamide] | 0.115 |
| CC1(C)C(N)=N[C@](C)(c2nc(NC(=O)c3ccc(OCF)cn3)ccc2F)[C@H]2CCN=[S@]21=O [Example 13BA, N-(6-((3aR,4R,8S)-6-amino-4,7,7-trimethyl-8-oxido-3,3a,4,7-tetrahydro-2H-isothiazolo[1,5-a][1,4]thiazin-4-yl)-5-fluoropyridin-2-yl)-5-(fluoromethoxy)picolinamide] | 0.382 |
| CC1(C)C(N)=N[C@](C)(c2nc(NC(=O)c3cnc(OC(F)F)cn3)ccc2F)[C@H]2CCN=[S@]21=O [Example 26BA, N-(6-((3aR,4R,8S)-6-amino-4,7,7-trimethyl-8-oxido-3,3a,4,7-tetrahydro-2H-isothiazolo[1,5-a][1,4]thiazin-4-yl)-5-fluoropyridin-2-yl)-5-(difluoromethoxy)pyrazine-2-carboxamide] | 0.152 |
| CC1(C)C(N)=N[C@](C)(c2nc(NC(=O)c3ccc(OCC(F)(F)C(F)F)cn3)ccc2F)[C@H]2CCN=[S@]21=O [Example 15BA, N-(6-((3aR,4R,8S)-6-amino-4,7,7-trimethyl-8-oxido-3,3a,4,7-tetrahydro-2H-isothiazolo[1,5-a][1,4]thiazin-4-yl)-5-fluoropyridin-2-yl)-5-(2,2,3,3-tetrafluoropropoxy)picolinamide] | 0.557 |
| CC1(C)C(N)=N[C@](C)(c2nc(NC(=O)c3ccc(OC(F)F)cn3)ccc2F)[C@H]2CCN=[S@]21=O [Example 14BA, N-(6-((3aR,4R,8S)-6-amino-4,7,7-trimethyl-8-oxido-3,3a,4,7-tetrahydro-2H-isothiazolo[1,5-a][1,4]thiazin-4-yl)-5-fluoropyridin-2-yl)-5-(difluoromethoxy)picolinamide] | 0.0526 |
| Cc1cc(F)cnc1C(=O)Nc1ccc(F)c([C@@]2(C)N=C(N)C(C)(C)[S@]3(=O)=NCC[C@H]23)n1 [Example 10BA, N-(6-((3aR,4R,8S)-6-amino-4,7,7-trimethyl-8-oxido-3,3a,4,7-tetrahydro-2H-isothiazolo[1,5-a][1,4]thiazin-4-yl)-5-fluoropyridin-2-yl)-5-fluoro-3-methylpicolinamide] | 0.42 |

Results, then the compound that gave them:

| IC50 [µM] | Structure (SMILES) |
| --- | --- |
| < 0.01 | CC1(C)C(N)=N[C@](C)(c2nc(NC(=O)c3nn(C(F)F)cc3Cl)ccc2F)[C@@H]2CCN=[S@@]21=O [Example 51AB, N-(6-((3aS,4R,8R)-6-amino-4,7,7-trimethyl-8-oxido-3,3a,4,7-tetrahydro-2H-isothiazolo[1,5-a][1,4]thiazin-4-yl)-5-fluoropyridin-2-yl)-4-chloro-1-(difluoromethyl)-1H-pyrazole-3-carboxamide] |
| 0.014 | CC1(C)C(N)=N[C@](C)(c2nc(NC(=O)c3ccc(C#N)cc3)ccc2F)[C@@H]2CCN=[S@@]21=O [Example 30AB, N-(6-((3aS,4R,8R)-6-amino-4,7,7-trimethyl-8-oxido-3,3a,4,7-tetrahydro-2H-isothiazolo[1,5-a][1,4]thiazin-4-yl)-5-fluoropyridin-2-yl)-4-cyanobenzamide] |
| 0.147 | CC#Cc1ccc(C(=O)Nc2ccc(F)c([C@@]3(C)N=C(N)C(C)(C)[S@@]4(=O)=NCC(F)(F)C[C@H]34)n2)nc1 [Example 47AA, N-(6-((4aR,5R,9R)-7-amino-3,3-difluoro-5,8,8-trimethyl-9-oxido-2,3,4,4a,5,8-hexahydro-[1,4]thiazino[2,1-f][1,2]thiazin-5-yl)-5-fluoropyridin-2-yl)-5-(prop-1-yn-1-yl)picolinamide] |
| 0.013 | Cc1cc(C#N)cnc1C(=O)Nc1ccc(F)c([C@@]2(C)N=C(N)C(C)(C)[S@@]3(=O)=NCC4(CC4)C[C@@H]23)n1 [Example 48AB, N-(6-((4aS,5R,9R)-7-amino-5,8,8-trimethyl-9-oxido-4,4a,5,8-tetrahydro-2H-spiro[[1,4]-thiazino[2,1-f][1,2]thiazine-3,1′-cyclopropan]-5-yl)-5-fluoropyridin-2-yl)-5-cyano-3-methylpicolinamide] |
| 0.295 | COc1cnc(C(=O)Nc2ccc(F)c([C@@]3(C)N=C(N)C(C)(C)[S@@]4(=O)=NCC(F)(F)C[C@H]34)n2)cn1 [Example 38AA, N-(6-((4aR,5R,9R)-7-amino-3,3-difluoro-5,8,8-trimethyl-9-oxido-2,3,4,4a,5,8-hexahydro-[1,4]thiazino[2,1-f][1,2]thiazin-5-yl)-5-fluoropyridin-2-yl)-5-methoxypyrazine-2-carboxamide] |
| 0.118 | CC1(C)C(N)=N[C@](C)(c2nc(NC(=O)c3ccc(F)cn3)ccc2F)[C@H]2CCN=[S@]21=O [Example 27BA, N-(6-((3aR,4R,8S)-6-amino-4,7,7-trimethyl-8-oxido-3,3a,4,7-tetrahydro-2H-isothiazolo[1,5-a][1,4]thiazin-4-yl)-5-fluoropyridin-2-yl)-5-fluoropicolinamide] |
| 0.034 | CC1(C)C(N)=N[C@](C)(c2nc(NC(=O)c3ccc(C#N)cc3Cl)ccc2F)[C@@H]2CCN=[S@@]21=O [Example 31AB, N-(6-((3aS,4R,8R)-6-amino-4,7,7-trimethyl-8-oxido-3,3a,4,7-tetrahydro-2H-isothiazolo[1,5-a][1,4]thiazin-4-yl)-5-fluoropyridin-2-yl)-2-chloro-4-cyanobenzamide] |
| 0.144 | CC1(C)C(N)=N[C@](C)(c2nc(NC(=O)c3cnc(OCC(F)F)cn3)ccc2F)[C@H]2CC(F)(F)CN=[S@@]21=O [Example 46AA, N-(6-((4aR,5R,9R)-7-amino-3,3-difluoro-5,8,8-trimethyl-9-oxido-2,3,4,4a,5,8-hexahydro-[1,4]thiazino[2,1-f][1,2]thiazin-5-yl)-5-fluoropyridin-2-yl)-5-(2,2-difluoroethoxy)pyrazine-2-carboxamide] |
| > 0.04 | CC1(C)C(N)=N[C@](C)(c2nc(NC(=O)c3ccc(C(=O)O)cn3)ccc2F)[C@H]2CC(F)(F)CN=[S@@]21=O [Example 44AA, 6-((6-((4aR,5R,9R)-7-amino-3,3-difluoro-5,8,8-trimethyl-9-oxido-2,3,4,4a,5,8-hexahydro-[1,4]thiazino[2,1-f][1,2]thiazin-5-yl)-5-fluoropyridin-2-yl)carbamoyl)nicotinic acid] |
